Several values for one entry are separate records, joined by “and”; a condition that tells them apart may be missing. Equal values may be shown once.
Columns and labels:
human recombinant MAGL = biological target: T1, human recombinant MAGL (Homo sapiens, UniProt Q99685); assay: In vitro MAGL inhibition enzyme assay; assay type: biochemical; settings: 4-nitrophenylacetate substrate
T1 sequence (Q99685 1-303): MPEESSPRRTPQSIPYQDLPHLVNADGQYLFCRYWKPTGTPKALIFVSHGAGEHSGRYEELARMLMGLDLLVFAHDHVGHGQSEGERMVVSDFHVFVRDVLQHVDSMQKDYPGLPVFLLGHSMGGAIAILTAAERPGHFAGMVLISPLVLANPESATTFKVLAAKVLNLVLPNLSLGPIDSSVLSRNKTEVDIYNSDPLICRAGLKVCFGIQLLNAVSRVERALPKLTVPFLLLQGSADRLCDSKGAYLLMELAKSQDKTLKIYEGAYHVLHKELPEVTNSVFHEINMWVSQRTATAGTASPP

FAAH = biological target: T2, FAAH (Homo sapiens, UniProt O00519); assay: In vitro FAAH inhibition enzyme assay; assay type: biochemical; settings: read-out: inhibition of FAAH enzyme
T2 sequence (O00519 1-579): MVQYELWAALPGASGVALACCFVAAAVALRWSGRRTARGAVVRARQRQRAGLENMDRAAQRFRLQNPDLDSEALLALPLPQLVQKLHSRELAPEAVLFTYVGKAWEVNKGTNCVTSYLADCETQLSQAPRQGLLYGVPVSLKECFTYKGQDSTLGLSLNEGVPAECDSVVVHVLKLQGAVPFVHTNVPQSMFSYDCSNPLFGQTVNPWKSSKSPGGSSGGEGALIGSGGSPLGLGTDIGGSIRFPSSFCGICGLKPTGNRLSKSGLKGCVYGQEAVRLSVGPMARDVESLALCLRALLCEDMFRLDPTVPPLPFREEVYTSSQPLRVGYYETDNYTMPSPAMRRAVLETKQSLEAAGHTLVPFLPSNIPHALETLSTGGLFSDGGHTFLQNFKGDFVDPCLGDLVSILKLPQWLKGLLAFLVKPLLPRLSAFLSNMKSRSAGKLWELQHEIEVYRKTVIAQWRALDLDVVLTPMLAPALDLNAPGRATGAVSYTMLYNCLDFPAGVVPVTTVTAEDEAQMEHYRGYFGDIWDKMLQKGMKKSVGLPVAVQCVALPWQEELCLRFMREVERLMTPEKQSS

[1] = Ex vivo whole body biodistribution in mice
MAGL = biological target: T3, MAGL (Rattus norvegicus, UniProt Q8R431); settings: 30 min i.v. before injection
T3 sequence (Q8R431 1-303): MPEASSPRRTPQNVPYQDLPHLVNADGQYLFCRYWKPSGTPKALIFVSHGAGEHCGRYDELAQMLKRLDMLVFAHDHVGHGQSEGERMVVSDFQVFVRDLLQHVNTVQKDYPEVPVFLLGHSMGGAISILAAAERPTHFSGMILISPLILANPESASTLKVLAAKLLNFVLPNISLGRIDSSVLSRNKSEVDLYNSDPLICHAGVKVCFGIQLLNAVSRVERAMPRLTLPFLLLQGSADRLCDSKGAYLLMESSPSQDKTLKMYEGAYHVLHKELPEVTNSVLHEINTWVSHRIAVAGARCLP

CB2 receptors = CB2 receptors (Homo sapiens, UniProt P34972); assay: CB2 agonist/antagonist test; assay type: cell-based; settings: at concentrations up to 30 µM
CB1 receptors = CB1 receptors (Homo sapiens, UniProt P21554); assay: CB1 agonist/antagonist test; assay type: cell-based; settings: at concentrations up to 30 µM
Chain of CB1 receptors (P21554 whole entry): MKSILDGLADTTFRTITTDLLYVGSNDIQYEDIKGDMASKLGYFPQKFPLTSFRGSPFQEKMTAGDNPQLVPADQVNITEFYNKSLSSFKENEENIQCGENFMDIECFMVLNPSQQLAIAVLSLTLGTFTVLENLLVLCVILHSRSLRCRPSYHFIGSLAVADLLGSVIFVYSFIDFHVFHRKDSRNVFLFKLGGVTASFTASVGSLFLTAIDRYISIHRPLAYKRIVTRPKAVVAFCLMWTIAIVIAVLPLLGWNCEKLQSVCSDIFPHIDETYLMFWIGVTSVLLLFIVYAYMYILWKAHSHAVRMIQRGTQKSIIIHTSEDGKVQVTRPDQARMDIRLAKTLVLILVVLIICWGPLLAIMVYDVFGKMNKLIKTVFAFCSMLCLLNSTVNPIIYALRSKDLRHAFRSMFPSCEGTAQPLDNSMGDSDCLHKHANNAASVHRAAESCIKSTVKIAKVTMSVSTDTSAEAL

Chain of CB2 receptors (P34972 whole entry): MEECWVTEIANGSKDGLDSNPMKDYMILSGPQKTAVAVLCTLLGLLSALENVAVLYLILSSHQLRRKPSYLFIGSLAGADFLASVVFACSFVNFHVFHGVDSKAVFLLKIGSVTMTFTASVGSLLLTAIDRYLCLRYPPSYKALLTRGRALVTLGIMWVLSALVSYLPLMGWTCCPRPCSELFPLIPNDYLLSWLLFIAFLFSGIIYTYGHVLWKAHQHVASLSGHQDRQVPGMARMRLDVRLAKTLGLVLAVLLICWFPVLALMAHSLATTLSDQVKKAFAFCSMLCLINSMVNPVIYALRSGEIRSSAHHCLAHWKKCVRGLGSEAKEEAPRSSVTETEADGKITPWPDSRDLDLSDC

SMILES	IC50 (human recombinant MAGL)	inhibition at 0.5 µM (FAAH) [%]	uptake in the liver, kidneys and small intestine [1]	reduction of [11C]5f uptake in cerebellum by pretreatment (MAGL; rat, blocker 1 mg/kg) [%]	reduction of [11C]5f uptake in cerebral cortex by pretreatment (MAGL; rat, blocker 1 mg/kg) [%]	reduction of [11C]5f whole brain uptake by pretreatment (MAGL; rat, blocker 1 mg/kg) [%]	CB2 receptor agonism or antagonism (CB2 receptors)	CB1 receptor agonism or antagonism (CB1 receptors)	effect on [11C]SAR127303 uptake and distribution in rat brain (MAGL; blocker 3 mg/kg)
O=C(N1CCC(CNS(=O)(=O)c2ccc(Cl)cc2)CC1)n1cncn1 [Compound 5f, N-((1-(1H-1,2,4-triazole-1-carbonyl)piperidin-4-yl)methyl)-4-chlorobenzenesulfonamide]	0.0393 µM and 0.0359 µM	75	High uptake	53	42	48	No significant CB1 and CB2 receptors agonism or antagonism	No significant CB1 and CB2 receptors agonism or antagonism	–
NC(=O)c1cccc(-c2cccc(OC(=O)NC3CCCCC3)c2)c1 [URB597, reference compound]	–	–	–	–	–	–	–	–	no effect on the uptake and distribution in rat brain
O=C(OC(C(F)(F)F)C(F)(F)F)N1CCC(CNS(=O)(=O)c2ccc(Cl)cc2)CC1 [Compound 5a, 1,1,1,3,3,3-hexafluoropropan-2-yl 4-(((4-chlorophenyl)sulfonamido)methyl)piperidine-1-carboxylate]	–	–	High uptake	–	–	–	No significant CB1 and CB2 receptors agonism or antagonism	No significant CB1 and CB2 receptors agonism or antagonism	–

Source: article PMC4893642 (Theranostics, 2016)
